Assay results reported in PMC5548701, “Selective targeting of melanoma using N-(2-diethylaminoethyl) 4-[^18F]fluoroethoxy benzamide (4-[^18F]FEBZA): a novel PET imaging probe” (EJNMMI Research, 2017).

How the values were obtained:
[1] = system: B16F1 melanoma tumor xenografts; assay: biodistribution in mice bearing B16F1 tumor xenografts; type: in vivo, C57BL/6 mice; details: for Tumor %IA/g tissue (mean ± SD): B16F1 tumor
Description: (§1) B16F1 melanoma cells, HT-29 human colorectal adenocarcinoma cells, and C-32 amelanotic melanoma cells were purchased from the American Type Culture Collection (ATCC, Rockville, MD). B16F1 murine melanotic melanoma cells were maintained in Dulbecco’s modified Eagles medium supplemented with 10% fetal calf-serum, 2 mM L-glutamine, and 1 mM pyruvate. HT-29 and C-32 cells were maintained in RPMI supplemented with 10% fetal calf serum and 2 mM L-glutamine. C57BL/6 and athymic nu/nu mice were purchased from Charles River Laboratories (Charles River Laboratories, Boston, MA). All animal studies were performed using an IACUC-approved protocol, and the work was performed under the guidelines established by Wake Forest University. The cells were grown to confluency, harvested, washed with phosphate-buffered saline and then were suspended in a 1:1 mixture of phosphate-buffered saline and Matrigel (BD Life Sciences, San Jose, CA) at a concentration of 5 × 10^6 cells/mL. For subcutaneous tumor xenografts, […] in the right flank with 100 μL of a suspension of B16F1 cells, and female athymic nu/nu mice were injected in the right flank with 100 μL of HT-29 cells or C-32 cells.
(§2) The biodistribution studies were performed in mice bearing B16F1 (1 h n = 5; 2 h n = 6), C-32 (1 h n = 3; 2 h n = 3), and HT-29 (1 h n = 3; 2 h n = 3) tumor xenografts. The tumor-bearing mice were injected with ~40 μCi of 4-[^18F]FEBZA. A separate group of normal C57BL/6 mice with no tumor implants (1 h n = 3; 2 h n = 3) was also injected with ~40 μCi of 4-[^18F]FEBZA to study the distribution characteristics of 4-[^18F]FEBZA in the absence of tumors. At 1 h and 2 h post-injection, the mice were euthanized, and the tissues of interest were removed, rinsed with PBS, weighed, and counted for radioactivity contents using a γ-counter.

B16F1 cells = assay: internalization assay (acid wash); type: cell-based, murine; details: 37 °C
Description: Next, we evaluated the binding characteristics of 4-[^18F]FEBZA to B16F1 cells through internalization experiments. The cells were treated with a low pH buffer to sequester membrane-bound radioactivity (acid wash-releasable) from the internalized (acid wash-resistant) fraction. For this assay, 4-[^18F]FEBZA was added to 12-well plates with each well containing 4 × 10^5 B16F1cells/well (in quadruplicate), and the plates were incubated at 37 °C for 15, 30, 60, 120, and 180 min. After the incubation, the media were removed, each well was washed with ice-cold PBS (2 × 1 mL), and the washes were collected in the tubes. Subsequently, each well was gently treated with 1 mL of an ice-cold mildly acidic medium (sodium acetate buffer, pH 4.5) to remove surface-bound radioactivity, and the rinses were collected in tubes (acidic wash). The adherent cells were then lysed using 500 μL of 10% Triton X-100 in PBS, and the lysate was transferred into tubes. The total radioactivity in each of the lysate, acidic wash, and the PBS wash was measured using a γ-counter.

[2] = biodistribution in normal mice with no tumor implants; type: in vivo, C57BL/6 mice; details: 1 h
Description: as §2

[3] = system: HT-29 human colorectal adenocarcinoma tumor xenografts; assay: biodistribution in mice bearing HT-29 tumor xenografts; type: in vivo, athymic nu/nu mice; details: for tumor-to-brain tissue ratio: HT-29 group; for Adrenals %IA/g tissue (mean ± SD) / Blood %IA/g tissue (mean ± SD) / Bone %IA/g tissue (mean ± SD) / Brain %IA/g tissue (mean ± SD) / Heart %IA/g tissue (mean ± SD) / Kidneys %IA/g tissue (mean ± SD) / Liver %IA/g tissue (mean ± SD) / Lung %IA/g tissue (mean ± SD) / Muscles %IA/g tissue (mean ± SD) / Pancreas %IA/g tissue (mean ± SD) / Sm. Intestine %IA/g tissue (mean ± SD) / Spleen %IA/g tissue (mean ± SD): HT-29 tumor mice; for Tumor %IA/g tissue (mean ± SD): HT-29 tumor
Description: as §1, §2

[4] = B16F1 tumor mice, 2 h post-injection

Kidneys %IA/g tissue (mean ± SD) [1, 4]: 2.20 ± 0.38 %IA/g tissue
Liver %IA/g tissue (mean ± SD) [1, 4]: 2.28 ± 0.49 %IA/g tissue
Lung %IA/g tissue (mean ± SD) [1, 4]: 1.49 ± 0.49 %IA/g tissue
Muscles %IA/g tissue (mean ± SD) [1, 4]: 1.14 ± 0.21 %IA/g tissue
Pancreas %IA/g tissue (mean ± SD) [1, 4]: 1.73 ± 0.14 %IA/g tissue
Sm. Intestine %IA/g tissue (mean ± SD) [1, 4]: 1.60 ± 0.31 %IA/g tissue
Spleen %IA/g tissue (mean ± SD) [1, 4]: 1.58 ± 0.18 %IA/g tissue
Tumor %IA/g tissue (mean ± SD) ([1]; 1 h post-injection): 8.66 ± 1.02 %IA/g tissue
Tumor %IA/g tissue (mean ± SD) ([1]; 2 h post-injection): 7.47 ± 1.34 %IA/g tissue
bone uptake ([2]; mice with no tumor): 3.23 ± 0.24 %IA/g
blood uptake ([2]; mice without implanted tumor): 2.81 ± 0.31 %IA/g
brain uptake ([2]; mice without implanted tumor): 2.46 ± 0.41 %IA/g
liver uptake ([2]; mice without implanted tumor): 4.11 ± 0.63 %IA/g
lungs uptake ([2]; mice without implanted tumor): 2.52 ± 0.47 %IA/g
muscle uptake ([2]; mice without implanted tumor): 1.10 ± 0.13 %IA/g
tumor-to-brain tissue ratio ([3]; 1 h): 2.19 ± 0.04
tumor-to-brain tissue ratio ([3]; 2 h): 2.04 ± 0.19
tumor-to-muscle ratio ([3]; HT-29 mice group, 2 h): 2.21 ± 0.17
Adrenals %IA/g tissue (mean ± SD) ([3]; 1 h post-injection): 1.07 ± 0.08 %IA/g tissue
Blood %IA/g tissue (mean ± SD) ([3]; 1 h post-injection): 2.80 ± 0.26 %IA/g tissue
Bone %IA/g tissue (mean ± SD) ([3]; 1 h post-injection): 3.83 ± 0.39 %IA/g tissue
Brain %IA/g tissue (mean ± SD) ([3]; 1 h post-injection): 1.68 ± 0.18 %IA/g tissue
Heart %IA/g tissue (mean ± SD) ([3]; 1 h post-injection): 2.52 ± 0.12 %IA/g tissue
Kidneys %IA/g tissue (mean ± SD) ([3]; 1 h post-injection): 2.91 ± 0.24 %IA/g tissue
Liver %IA/g tissue (mean ± SD) ([3]; 1 h post-injection): 4.84 ± 0.95 %IA/g tissue
Lung %IA/g tissue (mean ± SD) ([3]; 1 h post-injection): 2.19 ± 0.33 %IA/g tissue
Muscles %IA/g tissue (mean ± SD) ([3]; 1 h post-injection): 1.61 ± 0.28 %IA/g tissue
Pancreas %IA/g tissue (mean ± SD) ([3]; 1 h post-injection): 2.41 ± 0.26 %IA/g tissue
Sm. Intestine %IA/g tissue (mean ± SD) ([3]; 1 h post-injection): 1.98 ± 0.62 %IA/g tissue
Spleen %IA/g tissue (mean ± SD) ([3]; 1 h post-injection): 2.11 ± 0.25 %IA/g tissue
Adrenals %IA/g tissue (mean ± SD) ([3]; 2 h post-injection): 0.91 ± 0.19 %IA/g tissue
Blood %IA/g tissue (mean ± SD) ([3]; 2 h post-injection): 2.29 ± 0.23 %IA/g tissue
Bone %IA/g tissue (mean ± SD) ([3]; 2 h post-injection): 5.71 ± 1.11 %IA/g tissue
Brain %IA/g tissue (mean ± SD) ([3]; 2 h post-injection): 1.52 ± 0.28 %IA/g tissue
Heart %IA/g tissue (mean ± SD) ([3]; 2 h post-injection): 2.19 ± 0.37 %IA/g tissue
Kidneys %IA/g tissue (mean ± SD) ([3]; 2 h post-injection): 2.08 ± 0.29 %IA/g tissue
Liver %IA/g tissue (mean ± SD) ([3]; 2 h post-injection): 2.50 ± 0.29 %IA/g tissue
Lung %IA/g tissue (mean ± SD) ([3]; 2 h post-injection): 1.63 ± 0.16 %IA/g tissue
Muscles %IA/g tissue (mean ± SD) ([3]; 2 h post-injection): 1.40 ± 0.24 %IA/g tissue
Pancreas %IA/g tissue (mean ± SD) ([3]; 2 h post-injection): 1.56 ± 0.18 %IA/g tissue
Sm. Intestine %IA/g tissue (mean ± SD) ([3]; 2 h post-injection): 1.42 ± 0.10 %IA/g tissue
Spleen %IA/g tissue (mean ± SD) ([3]; 2 h post-injection): 1.51 ± 0.12 %IA/g tissue
Tumor %IA/g tissue (mean ± SD) ([3]; 1 h post-injection): 3.68 ± 0.47 %IA/g tissue
Tumor %IA/g tissue (mean ± SD) ([3]; 2 h post-injection): 3.07 ± 0.36 %IA/g tissue
Structure (SMILES): CCN(CC)CCNC(=O)c1ccc(OCC[18F])cc1 [4-[^18F]FEBZA, N-(2-diethylaminoethyl) 4-[^18F]fluoroethoxybenzamide]
internalized fraction of cell-associated radioactivity (B16F1 cells): Majority of the cell-associated radioactivity is internalized
time at which internalized fraction reached plateau (B16F1 cells): about 120 min
cell surface bound fraction (B16F1 cells; all time points (15-180 min)): < 1%
